Measurements published in ChEMBL document CHEMBL1201862, “PubChem BioAssay data set” (2004).
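Compound exposure: 48 hours, 5 concentrations, 96-well plates. Abbreviation: GI50, concentration required for 50% inhibition of growth.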 Active and inactive are the calls of the source. Rule as the data show it: active = GI50 up to about 1.1 µM and inactive = higher.

How the values were obtained:
Experiment in all cases: growth of human tumour cells (NCI), 48 h
SNB-19 = test system: SNB-19
NCI-H460 = test system: NCI-H460
NCI-H226 = test system: NCI-H226
SN12C = test system: SN12C
OVCAR-3 = test system: OVCAR-3
T47D = test system: T47D
UACC-257 = test system: UACC-257
Hs-578T = test system: Hs-578T
OVCAR-8 = test system: OVCAR-8
SNB-75 = test system: SNB-75
NCI-H522 = test system: NCI-H522
COLO 205 = test system: COLO 205
OVCAR-5 = test system: OVCAR-5
RXF 393 = test system: RXF 393
K562 = test system: K562
CCRF-CEM = test system: CCRF-CEM
KM12 = test system: KM12
HCC 2998 = test system: HCC 2998
SF-295 = test system: SF-295
SK-OV-3 = test system: SK-OV-3
OVCAR-4 = test system: OVCAR-4
HCT-15 = test system: HCT-15
SR = test system: SR
NCI/ADR-RES = test system: NCI/ADR-RES
UO-31 = test system: UO-31
NCI-H23 = test system: NCI-H23
SF-268 = test system: SF-268
EKVX = test system: EKVX
HOP-62 = test system: HOP-62
TK-10 = test system: TK-10
IGROV-1 = test system: IGROV-1
DU-145 = test system: DU-145
MDA-MB-435 = test system: MDA-MB-435
SK-MEL-2 = test system: SK-MEL-2
786-0 = test system: 786-0
HCT-116 = test system: HCT-116
SF-539 = test system: SF-539
Malme-3M = test system: Malme-3M
PC-3 = test system: PC-3
MDA-N = test system: MDA-N
MCF7 = test system: MCF7
MOLT-4 = test system: MOLT-4
UACC-62 = test system: UACC-62
A549 = test system: A549
BT-549 = test system: BT-549
SK-MEL-5 = test system: SK-MEL-5
ACHN = test system: ACHN
A498 = test system: A498
MDA-MB-231 = test system: MDA-MB-231
HT-29 = test system: HT-29
U-251 = test system: U-251
M14 = test system: M14
CAKI-1 = test system: CAKI-1
RPMI-8226 = test system: RPMI-8226
LOX IMVI = test system: LOX IMVI
SK-MEL-28 = test system: SK-MEL-28
HL-60 = test system: HL-60
SW-620 = test system: SW-620

c1ccc(-c2cc(-c3cc(-c4ccccc4)[nH]n3)[nH]n2)cc1
GI50 (SNB-19): > 100 µM (inactive)
GI50 (NCI-H460): > 100 µM (inactive)
GI50 (NCI-H226): > 100 µM (inactive)
GI50 (SN12C): > 100 µM (inactive)
GI50 (OVCAR-3): > 100 µM (inactive)
GI50 (T47D): > 100 µM (inactive)
GI50 (UACC-257): > 100 µM (inactive)
GI50 (Hs-578T): > 100 µM (inactive)
GI50 (OVCAR-8): > 100 µM (inactive)
GI50 (SNB-75): > 100 µM (inactive)
GI50 (NCI-H522): > 100 µM (inactive)
GI50 (COLO 205): > 100 µM (inactive)
GI50 (OVCAR-5): > 100 µM (inactive)
GI50 (RXF 393): > 100 µM (inactive)
GI50 (K562): > 100 µM (inactive)
GI50 (CCRF-CEM): > 100 µM (inactive)
GI50 (KM12): > 100 µM (inactive)
GI50 (HCC 2998): > 100 µM (inactive)
GI50 (SF-295): > 100 µM (inactive)
GI50 (SK-OV-3): > 100 µM (inactive)
GI50 (OVCAR-4): > 100 µM (inactive)
GI50 (HCT-15): > 100 µM
GI50 (SR): > 100 µM (inactive)
GI50 (NCI/ADR-RES): > 100 µM (inactive)
GI50 (UO-31): > 100 µM (inactive)
GI50 (NCI-H23): > 100 µM (inactive)
GI50 (SF-268): > 100 µM (inactive)
GI50 (EKVX): > 100 µM (inactive)
GI50 (HOP-62): > 100 µM (inactive)
GI50 (TK-10): > 100 µM (inactive)
GI50 (IGROV-1): > 100 µM (inactive)
GI50 (DU-145): > 100 µM (inactive)
GI50 (MDA-MB-435): > 100 µM (inactive)
GI50 (SK-MEL-2): > 100 µM (inactive)
GI50 (786-0): > 100 µM (inactive)
GI50 (HCT-116): > 100 µM (inactive)
GI50 (SF-539): > 100 µM (inactive)
GI50 (Malme-3M): > 100 µM (inactive)
GI50 (PC-3): > 100 µM (inactive)
GI50 (MDA-N): > 100 µM (inactive)
GI50 (MCF7): > 100 µM (inactive)
GI50 (MOLT-4): > 100 µM (inactive)
GI50 (UACC-62): > 100 µM (inactive)
GI50 (A549): > 100 µM (inactive)
GI50 (BT-549): > 100 µM (inactive)
GI50 (SK-MEL-5): > 100 µM (inactive)
GI50 (ACHN): > 100 µM (inactive)
GI50 (A498): > 100 µM (inactive)
GI50 (MDA-MB-231): > 100 µM (inactive)
GI50 (HT-29): > 100 µM (inactive)
GI50 (U-251): > 100 µM (inactive)
GI50 (M14): > 100 µM (inactive)
GI50 (CAKI-1): > 100 µM (inactive)

c1cnn(C23C4C5C6C4C2C6C53)c1 (stereo not drawn)
GI50 (SNB-19): > 100 µM (inactive)
GI50 (NCI-H460): > 100 µM (inactive)
GI50 (NCI-H226): 60.4 µM (inactive)
GI50 (SN12C): > 100 µM (inactive)
GI50 (T47D): > 100 µM (inactive)
GI50 (UACC-257): > 100 µM (inactive)
GI50 (Hs-578T): > 100 µM (inactive)
GI50 (RPMI-8226): > 100 µM (inactive)
GI50 (OVCAR-8): > 100 µM (inactive)
GI50 (SNB-75): > 100 µM (inactive)
GI50 (NCI-H522): > 100 µM (inactive)
GI50 (COLO 205): > 100 µM (inactive)
GI50 (OVCAR-5): > 100 µM (inactive)
GI50 (K562): > 100 µM (inactive)
GI50 (CCRF-CEM): > 100 µM (inactive)
GI50 (KM12): > 100 µM (inactive)
GI50 (HCC 2998): > 100 µM (inactive)
GI50 (SF-295): > 100 µM (inactive)
GI50 (SK-OV-3): > 100 µM (inactive)
GI50 (HCT-15): > 100 µM
GI50 (SR): > 100 µM (inactive)
GI50 (NCI/ADR-RES): > 100 µM (inactive)
GI50 (NCI-H23): > 100 µM (inactive)
GI50 (SF-268): > 100 µM (inactive)
GI50 (EKVX): > 100 µM (inactive)
GI50 (HOP-62): > 100 µM (inactive)
GI50 (LOX IMVI): > 100 µM (inactive)
GI50 (TK-10): > 100 µM (inactive)
GI50 (SK-MEL-28): > 100 µM (inactive)
GI50 (IGROV-1): > 100 µM (inactive)
GI50 (DU-145): > 100 µM (inactive)
GI50 (MDA-MB-435): > 100 µM (inactive)
GI50 (SK-MEL-2): > 100 µM (inactive)
GI50 (786-0): > 100 µM (inactive)
GI50 (HCT-116): > 100 µM (inactive)
GI50 (HL-60): > 100 µM (inactive)
GI50 (SF-539): > 100 µM (inactive)
GI50 (PC-3): > 100 µM (inactive)
GI50 (MDA-N): > 100 µM (inactive)
GI50 (MCF7): > 100 µM (inactive)
GI50 (MOLT-4): > 100 µM (inactive)
GI50 (A549): > 100 µM (inactive)
GI50 (BT-549): 71.6 µM (inactive)
GI50 (SK-MEL-5): > 100 µM (inactive)
GI50 (ACHN): > 100 µM (inactive)
GI50 (A498): > 100 µM (inactive)
GI50 (MDA-MB-231): > 100 µM (inactive)
GI50 (HT-29): > 100 µM (inactive)
GI50 (U-251): > 100 µM (inactive)
GI50 (SW-620): > 100 µM (inactive)
